Source: patent US8784633B2, “Automatic positioning and sensing microelectrode arrays” (priority 2007, dated 2014)

Test system: cortical neurons
Assay: Multi-site recording of extracellular spontaneous electrophysiological activity of cortical neuronal networks on APSMEA
Type: cell-based, rat
Protocol: FIG. 3 is a process flow diagram 300 of a process for controlling movement of target cells into a predetermined location using negative DEP forces. At 302, target cells (e.g., neuronal cells) in suspension are introduced onto a APSMEA device 100. The target cells are prepared according to institutional guidelines for care and use of animals. For example, to obtain neuronal cells, cortical neurons are excised from 18-day rat embryos and dissociated by trituration after digestion with papain (20 U/ml). The neurons are then resuspended in Neurobasal medium with B27 supplement and 500 μM glutamine. The medium initially added to new cultures are also supplemented with 25 μM glutamate and 25 μM β-mercaptoethanol. With four different concentrations, i.e., 1×10^5 cells/ml, 2×10^5 cells/ml, 5×10^5 cells/ml and 1×10^6 cells/ml, neurons are seeded on the APSMEA device 100 after coating with poly-L-lysine (50 μg/ml) and laminin (10 μg/ml).
FIG. 6a-c represent results of multi-site recordings of extracellular spontaneous electrophysiological activities from cortical neuronal networks (14 DIV) for control (no DEP forces applied) and manipulated (with DEP forces applied) cells at the seeding cell concentration of 5×10^5 cells/ml. Multi-site electrophysiological recordings in this and other implementations can be performed with the APSMEA device connected with a commercial multi-channel amplifier and filtering stage (Cyberkinetics, Salt Lake City, Utah). Measurements are carried out in 14 days old cortical cultures at 37° C., allowing the signals from the recording electrodes 122 amplified (×5000), band-pass filtered (250-7500 Hz), and sampled at 30 kHz/channel on 25 channels simultaneously. Using ±3 times of the standard deviation of the noise level as the threshold value for each channel, electrophysiological activities are detected on-line or off-line. NMDA (5 μM) and APV (5 μM) are also applied in the culture medium, and their related electrophysiological activities before and after any drug (e.g., chemical compounds) administration are both recorded for 10 min. […]

[1] = 5 μM in culture medium, cortical neurons 14 DIV, 10 min recording, n=4 separate APSMEAs

In the case of N[C@@H](CCCP(=O)(O)O)C(=O)O [APV], the “electrical activity level (sum of spikes over all active sites) compared with no drug added control” value [1] was 7.8±7.5 % of control.
For CN[C@H](CC(=O)O)C(=O)O [NMDA], the “induced activity level relative to controls” value [1] was “increase three times more than that of controls”.
For TTX, the “effect on recorded extracellular action potentials (electrical activities)” value was “inhibited”.
